{"source": "patent US10869938B2", "about": "“Magnetic resonance imaging” (1C TARGETS AS, priority 2007, dated 2020)", "origin": "cited, not measured here", "tested_on": "healthy myocardial cells", "settings": "healthy individuals", "note": "Like-named read-outs stand apart in the source and are kept apart here.", "data": [{"smiles": "Cc1ncc(COP(=O)(O)O)c(CN(CCN(CC(=O)[O-])Cc2c(COP(=O)(O)O)cnc(C)c2O)CC(=O)[O-])c1O.[Mn+2]", "note": "[MnDPDP, manganese (II) chelate of N,N′-bis-(pyridoxal-5-phosphate)-ethylenediamine-N,N′-diacetic acid]", "values": [{"measurement": "manganese tissue concentration versus time curve", "setting": "5 minute infusion", "value": "biphasic curve"}, {"measurement": "manganese tissue concentration versus time curve", "setting": "30 minute infusion", "value": "increased steadily"}]}]}
